Tests used:
Format in all cases: cell-based
[1] = tested on: human cervical tumor cell line HeLa (ATCC CCL-2); assay: SAC-Formation - Nocodazole-Induced Assay; conditions: Homo sapiens, HeLa, 24 h, HeLa cells, nocodazole 0.1 μg/ml together with test compound, decrease of mitotic cells (phospho-histone H3 Ser10)
Excerpt: (§1) The spindle assembly checkpoint assures the proper segregation of chromosomes during mitosis. Upon entry into mitosis, chromosomes begin to condensate which is accompanied by the phosphorylation of histone H3 on serine 10. Dephosphorylation of histone H3 on serine 10 begins in anaphase and ends at early telophase. Accordingly, phosphorylation of histone H3 on serine 10 can be utilized as a marker of cells in mitosis. Nocodazole is a microtubule destabilizing substance. Paclitaxel is a microtubule stabilizing compound. Thus, nocodazole as well as paclitaxel interfere with microtubule dynamics and mobilize the spindle assembly checkpoint. […] The mitotic breakthrough can be detected by the decrease of cells with phosphorylation of histone H3 on serine 10. This decline is used as a marker to determine the capability of compounds of the present invention to induce a mitotic breakthrough. The typical morphological alteration of nuclei with a prematurely completed mitosis after SAC-inhibition can be monitored via image analysis routines supporting those findings.
(§2) The nocodazole and paclitaxel variations were used to focus on compounds that are capable of inhibiting a SAC induced by both microtubule destabilization as well as microtubule stabilization. When SAC inducing agents and compounds are given simultaneously inhibitors that effectively block the SAC during formation or abrogation are identified. When cells are incubated with a SAC inducing agent and the SAC interfering compound is given after a defined time, inhibitors are identified that effectively block SAC abrogation.
(§3) Cultivated cells of the human cervical tumor cell line HeLa (ATCC CCL-2) were plated at a density of 1000 cells/well in a 1536-well microtiter plate in 2 μl PAA Ham's F12 Medium supplemented with 1% (v/v) glutamine, 1% (v/v) penicillin, 1% (v/v) streptomycin and 10% (v/v) fetal calf serum. After incubation overnight at 37° C., 10 μl/well nocodazole at a final concentration of 0.1 μg/ml were added to cells. Test compounds solubilized in dimethyl sulfoxide (DMSO) were added at various concentrations (0 μM, as well as in the range of 0.005 μM-20 μM; the final concentration of the solvent DMSO was 0.5% (v/v)). Cells were incubated for 24 h at 37° C. in the presence of test compounds in combination with nocodazole. Thereafter, cells were fixed in 4% (v/v) paraformaldehyde in phosphate buffered saline (PBS) at 4° C. overnight then permeabilized in 0.1% (v/v) Triton X™ 100 in PBS at room temperature for 20 min and blocked in 0.5% (v/v) bovine serum albumin (BSA) in PBS at room temperature for 15 min. After washing with PBS, 5 μl/well antibody solution (anti-phospho-histone H3 clone 3H10, FITC; Millipore, Cat#16-222; 1:1000 dilution) was added to cells, which were incubated for 2 h at room temperature. Afterwards, cells were washed with PBS and 5 μl/well solution of HOECHST 33342 dye (5 μg/ml) was added to cells and cells were incubated 15 min at room temperature in the dark. Cells were washed twice with PBS then covered with PBS and stored at 4° C. until analysis. Images were acquired with a PERKIN ELMER OPERA™ High-Content Analysis reader. Images were analyzed with image analysis software MetaXpress™ from Molecular devices utilizing the Mitotic Index application module. In this assay both labels HOECHST 33342 and phosphorylated Histone H3 on serine 10 were measured. HOECHST 33342 labels the DNA and is used to count the cell number. The staining of phosphorylated Histone H3 on serine 10 determines the number of mitotic cells. […] Otherwise cells were arrested at G2/M phase of the cell cycle progression. The raw assay data were further analyzed by four-parametric hill equation using Genedata's Assay Analyzer and Condoseo software.

[2] = tested on: human cervical tumor cell line HeLa (ATCC CCL-2); assay: SAC-Formation - Paclitaxel-Induced Assay; conditions: Homo sapiens, HeLa, 24 h, HeLa cells, paclitaxel 0.05 μM, test range 0.005 μM-20 μM, read-out: IC50 [mol/l] SAC-Formation - Paclitaxel-Induced Assay
Excerpt: as §1, §2
Cultivated cells of the human cervical tumor cell line HeLa (ATCC CCL-2) were plated at a density of 1000 cells/well in a 1536-well microtiter plate in 2 μl PAA
as §3, with “Ham's” for “Cultivated cells of the human cervical tumor cell line HeLa (ATCC CCL-2) were plated at a density of 1000 cells/well in a 1536-well microtiter plate in 2 μl PAA Ham's”, “paclitaxel” for “nocodazole”, “0.05 μM” for “0.1 μg/ml”, “μM -20” for “μM-20”, “paclitaxel.” for “nocodazole.”

HeLa = assay: Proliferation assay (crystal violet), HeLa; conditions: Homo sapiens, HeLa, 96 h, HeLa cells; 4 days incubation; crystal violet staining; read-out: IC50 inhibition of proliferation, HeLa
Experimental: Cultivated tumor cells (cells were ordered from ATCC, except HeLa-MaTu and HeLa-MaTu-ADR, which were ordered from EPO-GmbH, Berlin) were plated at a density of 1000 to 5000 cells/well, depending on the growth rate of the respective cell line, in a 96-well multititer plate in 200 μL of their respective growth medium supplemented 10% fetal calf serum. After 24 hours, the cells of one plate (zero-point plate) were stained with crystal violet (see below), while the medium of the other plates was replaced by fresh culture medium (200 μl), to which the test substances were added in various concentrations (0 μM, as well as in the range of 0.001-10 μM; the final concentration of the solvent dimethyl sulfoxide was 0.5%). The cells were incubated for 4 days in the presence of test substances. Cell proliferation was determined by staining the cells with crystal violet: the cells were fixed by adding 20 μl/measuring point of an 11% glutaric aldehyde solution for 15 minutes at room temperature. After three washing cycles of the fixed cells with water, the plates were dried at room temperature. The cells were stained by adding 100 μl/measuring point of a 0.1% crystal violet solution (pH 3.0). After three washing cycles of the stained cells with water, the plates were dried at room temperature. The dye was dissolved by adding 100 μl/measuring point of a 10% acetic acid solution. Absorbtion was determined by photometry at a wavelength of 595 nm. The change of cell number, in percent, was calculated by normalization of the measured values to the aborbtion values of the zero-point plate (=0%) and the absorbtion of the untreated (0 μm) cells (=100%). The IC50 values were determined by means of a 4 parameter fit.

| Compound | IC50 [1] [µM] | IC50 [2] [µM] | IC50 (HeLa) [µM] |
| --- | --- | --- | --- |
| CC(=O)Nc1ccccc1NC(=O)c1cccc(NC(=O)c2c(C)nsc2Nc2cnc3ccccc3n2)c1 [Example 84, N-(3-{[2-(Acetylamino)phenyl]carbamoyl}phenyl)-3-methyl-5-(quinoxalin-2-ylamino)-1,2-thiazole-4-carboxamide] | 0.096 | 8.4 | 10 |
| COCCCNC(=O)c1cccc(NC(=O)c2c(C)nsc2Nc2cnc3ccccc3n2)c1 [Example 85, N-{3-[(3-Methoxypropyl)carbamoyl]phenyl}-3-methyl-5-(quinoxalin-2-ylamino)-1,2-thiazole-4-carboxamide] | 0.018 | 0.97 | 8.9 |
| CC(=O)N[C@H]1CCN(C(=O)c2cccc(NC(=O)c3c(C)nsc3Nc3cnc4ccccc4n3)c2)C1 [Example 86, N-(3-{[(3S)-3-(acetylamino)pyrrolidin-1-yl]carbonyl}-phenyl)-3-methyl-5-(quinoxalin-2-ylamino)-1,2-thiazole-4-carboxamide] | 3.2 | 13 | 10 |
| Cc1nsc(Nc2cnc3ccccc3n2)c1C(=O)Nc1cccc(C(=O)N2CCN(c3cccc(F)c3)CC2)c1 [Example 87, N-(3-{[4-(3-Fluorophenyl)piperazin-1-yl]carbonyl}phenyl)-3-methyl-5-(quinoxalin-2-ylamino)-1,2-thiazole-4-carboxamide] | 0.39 | 1.5 | 4.5 |
| Cc1nsc(Nc2cnc3ccccc3n2)c1C(=O)Nc1cccc(C(=O)N2CCN(C(=O)c3ccccc3)CC2)c1 [Example 88, N-{3-[(4-Benzoylpiperazin-1-yl)carbonyl]phenyl}-3-methyl-5-(quinoxalin-2-ylamino)-1,2-thiazole-4-carboxamide] | 0.031 | 0.48 | 10 |
| Cc1nsc(Nc2cnc3ccccc3n2)c1C(=O)Nc1cccc(C(=O)N2CCN(C(=O)N(C)C)CC2)c1 [Example 89, N,N-Dimethyl-4-[3-({[3-methyl-5-(quinoxalin-2-ylamino)-1,2-thiazol-4-yl]carbonyl}amino)benzoyl]piperazine-1-carboxamide] | 2.9 | 11 | 10 |
| Cc1nsc(Nc2cnc3ccccc3n2)c1C(=O)Nc1cccc(C(=O)N2CCN(CCN(C)C)CC2)c1 [Example 90, N-[3-({4-[2-(Dimethylamino)ethyl]piperazin-1-yl}carbonyl)-phenyl]-3-methyl-5-(quinoxalin-2-ylamino)-1,2-thiazole-4-carboxamide] | 0.79 | 17 | 10 |
| COCCN1CCN(C(=O)c2cccc(NC(=O)c3c(C)nsc3Nc3cnc4ccccc4n3)c2)CC1 [Example 91, N-(3-{[4-(2-Methoxyethyl)piperazin-1-yl]carbonyl}phenyl)-3-methyl-5-(quinoxalin-2-ylamino)-1,2-thiazole-4-carboxamide] | 0.042 | 0.23 | 10 |
| Cc1nsc(Nc2cnc3ccccc3n2)c1C(=O)Nc1cccc(C(=O)N2CCN(CC(=O)N(C)C)CC2)c1 [Example 92, N-[3-({4-[2-(Dimethylamino)-2-oxoethyl]piperazin-1-yl}-carbonyl)phenyl]-3-methyl-5-(quinoxalin-2-ylamino)-1,2-thiazole-4-carboxamide] | 0.94 | 20 | 10 |
| Cc1nsc(Nc2cnc3ccccc3n2)c1C(=O)Nc1cccc(C(=O)N2CCN(Cc3ccc(F)cc3)CC2)c1 [Example 93, N-(3-{[4-(4-Fluorobenzyl)piperazin-1-yl]carbonyl}phenyl)-3-methyl-5-(quinoxalin-2-ylamino)-1,2-thiazole-4-carboxamide] | 0.71 | 2.7 | 9.9 |
| Cc1nsc(Nc2cnc3ccccc3n2)c1C(=O)Nc1cccc(C(=O)N2CCN(CCc3ccccn3)CC2)c1 [Example 94, 3-Methyl-N-[3-({4-[2-(pyridin-2-yl)ethyl]piperazin-1-yl}-carbonyl)phenyl]-5-(quinoxalin-2-ylamino)-1,2-thiazole-4-carboxamide] | 0.94 | 8.4 | 10 |
| Cc1nsc(Nc2cnc3ccccc3n2)c1C(=O)Nc1cccc(C(=O)NCCCN2CCOCC2)c1 [Example 95, 3-Methyl-N-(3-{[3-(morpholin-4-yl)propyl]carbamoyl}-phenyl)-5-(quinoxalin-2-ylamino)-1,2-thiazole-4-carboxamide] | 0.068 | 10 | 10 |
| Cc1nsc(Nc2cnc3ccccc3n2)c1C(=O)Nc1cccc(N)c1 [Example 450, N-(3-Aminophenyl)-3-methyl-5-(quinoxalin-2-ylamino)-1,2-thiazole-4-carboxamide] | 12 | 20 | > 10 |
